Measured values as given in US20090010910A1, “COMPOSITIONS AND METHODS FOR DERMATOLOGICAL WOUND HEALING” (MEDIWOUND LTD., priority 2004, published 2009).

System: burn eschar (deep thermal burn)
Experiment: In vivo eschar debridement test in swine model (radiant-heat deep thermal burn, 4-hour application, visual assessment score)
Parameters: species or system young domestic pig (Landrace×Large Whites juvenile swine)
Excerpt: This study assessed the eschar-debriding activity of the debriding composition in vivo using an animal model of young domestic pig (Landrace×Large Whites juvenile swine) 22 Kg±2 Kg, bearing deep thermal burn. […] In order to create test conditions burns were inflicted in fully anesthetized animals, in a dorsal test area, by a radiant heat device creating wounds of about 4.5×4.5 cm^2. The treatment consisted of a 4-hour application of the debriding composition following by cleansing of the wound. Visual evaluation of the wound and extent of debridement is carried out by photographical documentation of the burn was performed before and after the debriding treatment. The results were expressed using debridement visual assessment scoring (VAS) scale of 1 to 5 as follows:
The model was a radiant-heat thermal burn in an anesthetized young domestic pig. In order to create test conditions which are in accordance with the therapeutic use of the test article, deep dermal and full thickness burns were inflicted in all animals by applying a radiant heat device to the back to cover an area of approximately 3% TBSA (4.5×4.5 cm) for each burn. A gross evaluation of the debriding activity of the test article (the amount of eschar removed) was assessed and photographically documented. […]

For `O=[N+]([O-])[O-].[Ag+]` [AgNO3], the “debridement by semi solid cake of debriding agent reconstituted with hydrating gel plus antiseptic” value (AgNO3 (0.5%), FIG. 1) was “performs debridement” and the “difference in morphology of debrided burns between areas treated with debriding mixture comprising the antiseptic” value (FIG. 1, areas 10-12 (Silverol™) versus 14-15 (AgNO3), after cleaning dissolved eschar) was “No significant difference”.
